# Reference: patent US20090176817A1, “Method of Treatment of Diarrhea-Predominant Irritable Bowel Syndrome in a Subject” (priority 2005, published 2009)
# Read-outs that look alike come from different tables or passages of the source.
# How the values were obtained:
# in vitro = in vitro ADME; conditions: human, plasma
# Description: Protein binding was also evaluated in an in vitro study in human, mouse, rat, and dog plasma using equilibrium dialysis (12-14K molecular weight cut-off membrane). This study measured the binding of (^14C)-cilansetron in plasma at nominal concentrations (30, 90, and 300 ng/mL) which are much higher than those encountered in vivo in humans. This study also measured the binding of (^14C)-cilansetron to purified human serum albumin at cilansetron concentrations ranging from 30-3000 ng/mL and to purified human alpha-1 acid glycoprotein (AAG) at concentrations ranging from 30-10000 ng/mL.
# [1] = system: diarrhea-predominant IBS subjects; experiment: Study S241.3.009: IBS-QOL; assay type: in vivo, human; set-up: IBS-QOL interference with activity, treatment difference / IBS-QOL food avoidance, treatment difference / IBS-QOL dysphoria, treatment difference / IBS-QOL body image, treatment difference / IBS-QOL health worry, treatment difference / IBS-QOL social reaction, treatment difference / IBS-QOL sexual, treatment difference / IBS-QOL relationships, treatment difference: scale not given here; conditions: for Percentage of Subjects Who Worsened from Baseline: IBS-QOL Overall Score: S241.3.009, 2 mg TID, observed value
# From the text: Studies S24 1.3.OO6, S24 1.3.0 1 1, and S24 1.3.009 used the following efficacy measurements: • The subjects answered the following three questions with “yes” or “no” using a phone diary at the end of each week: • a) During the last week, did you experience adequate relief of your IBS symptoms, such as abdominal pain, abdominal discomfort, abnormal bowel habits? • b) During the last week, did you experience adequate relief of your abdominal pain and/or discomfort? • c) During the last week, did you experience adequate relief of your abnormal bowel habits? • The subjects rated the following symptoms using the phone diary at the end of each day: • abdominal pain/discomfort (five-point scale); • stool consistency (seven-point Bristol Stool Scale); • stool frequency (number of bowel movements each day); • urgency (five-point scale); • straining (yes or no); • feeling of incomplete defecation (yes or no); • bloating or feeling of abdominal distension (five-point scale). • In Studies S241 A006 and S241.3.009, subjects completed the IBS-QOL Survey at Baseline (Day 1) and at the end of treatment. In Study S24 1.3.0 1 1, subjects completed the IBS-QOL Survey at Baseline (Day 1), at the end of the three-month treatment period, and at the end of rerandomized treatment.
# Other secondary efficacy parameters for all three studies included: • Responder rate for the weekly diary questions on adequate relief at each month, where a responder for a month (monthly responder) was defined as a subject who answered the weekly question with “yes” at least twice for that month. The responder rate was the percentage of responders within a treatment group. The all-month responder rate for the weekly diary questions on adequate relief was also evaluated, where an all-month responder was defined as a subject who answered the weekly question with “yes” at least twice for each month. The all-month responder rate was the percentage of all-month responders within a treatment group; • Adequate relief rate for the weekly diary questions was calculated for each subject as the number of weekly assessments with adequate relief (“yes”) divided by the total number of weekly assessments; • Percentage of subjects with adequate relief for the weekly diary questions at each week; • Daily diary questions regarding abdominal pain/discomfort (five-point scale), stool consistency (seven-point scale), stool frequency (number of bowel movements each day), straining (yes or no), urgency (five-point scale), feeling of incomplete evacuation (yes or no), and bloating or feeling of abdominal distention (five-point scale); • QOL data assessed by the IBS-QOL questionnaire; and • Question to determine the interruption of activities.
# The IBS-QOL is presented for the ITT population in FIG. 84 (change from Baseline). The IBS-QOL questionnaire was completed only in countries for which there was a validated translation available.
# [2] = both, human; for Fraction unbound ratio All Renal Groups Combined:Healthy / Fraction unbound ratio Mild:Healthy / Fraction unbound ratio Moderate:Healthy / Fraction unbound ratio Severe:Healthy: serum
# Description: The ex vivo protein binding of cilansetron and its 4-hydroxy metabolites has been measured in serum samples collected in a multiple-dose study in healthy and renally impaired male and female subjects, aged 33-74 years. […] Healthy subjects were matched to renally-impaired subjects with respect to age, weight, gender, and smoking status. All subjects received oral cilansetron 2 mg TID on Days 1 to 5, and a single dose on the morning of Day 6.
# [3] = system: patients with malignant tumors; experiment: Study S.241.2.101: cisplatin-induced nausea and vomiting; assay type: in vivo, human; conditions: IV 8 mg TID
# Description: The effect of cilansetron on nausea and vomiting has been studied in 2 clinical studies in cancer patients. Both studies were randomized, singleblind, positive-controlled, parallel-group, pilot studies in male and female patients with malignant tumors, to investigate the effect of cilansetron on cytostatic-induced nausea and vomiting. In both studies, patients were on their first cycle of chemotherapy and were being treated with cisplatin (275 mg/m2 as a single dose in Study S.24 1.2.10 1 and […] for 5 days in Study K.24 1 S O 17). Patients in Study S.24 1.2.10 1 were aged 40-74 years (ITT population=16) and patients in Study K.24 1 S O 17 were aged 39-74 years (ITT population=19). In both studies, patients were randomized to receive either […] or IV ondansetron 8 mg TID for 1 day (Study S.241.2.101) or 5 days (Study K.2415017), corresponding to the day(s) of their cisplatin administration. If nausea and vomiting were completely controlled on a treatment day, the second and/or third doses of cilansetron or ondansetron could be omitted on that day. The primary efficacy parameter in both studies was the combination of the occurrence of vomiting and the severity of nausea, with a responder being defined as a patient with no vomiting and not more than mild nausea during the treatment day(s). […]
structure (smiles),measurement,setting,value
"Cc1nccn1C[C@H]1CCc2c(c3cccc4c3n2CCC4)C1=O [Cilansetron, (R)-(−)-4,5,6,8,9,10-hexahydro-10-[(2-methyl-1H-imidazol-1-yl)methyl]-11H-pyrido-[3,2,1-jk]-carbazol-11-one]",fraction unbound,in vitro,0.042
same,"Subjects worsened from Baseline, IBS-QOL Overall Score",[1]; Month 6,5%
same,Percentage of Subjects Who Worsened from Baseline: IBS-QOL Overall Score,[1]; Endpoint (last post-Baseline overall score),5%
same,Percentage of Subjects Who Worsened from Baseline: IBS-QOL Overall Score,[1]; Month 6,5%
same,"IBS-QOL body image, treatment difference",[1]; vs placebo,5.04
same,"IBS-QOL dysphoria, treatment difference",[1]; vs placebo,8.78
same,"IBS-QOL food avoidance, treatment difference",[1]; vs placebo,10.09
same,"IBS-QOL health worry, treatment difference",[1]; vs placebo,5.41
same,"IBS-QOL interference with activity, treatment difference",[1]; vs placebo,10.85
same,"IBS-QOL overall score, treatment difference in mean change from Baseline at Endpoint",[1]; vs placebo,7.90
same,"IBS-QOL relationships, treatment difference",[1]; vs placebo,5.66
same,"IBS-QOL sexual, treatment difference",[1]; vs placebo,2.93
same,"IBS-QOL social reaction, treatment difference",[1]; vs placebo,8.70
same,Protein bound on average,[2],96.0-96.6%
same,Fraction unbound ratio All Renal Groups Combined:Healthy,[2],"81 (62, 105) %"
same,Fraction unbound ratio Mild:Healthy,[2],"86 (61, 121) %"
same,Fraction unbound ratio Moderate:Healthy,[2],"84 (54, 131) %"
same,Fraction unbound ratio Severe:Healthy,[2],"73 (52, 102) %"
same,Fraction unbound ratio All Renal Groups Combined:Healthy,[2]; 1 h,"94 (76, 116) %"
same,Fraction unbound ratio Mild:Healthy,[2]; 1 h,"91 (70, 119) %"
same,Fraction unbound ratio Moderate:Healthy,[2]; 1 h,"105 (79, 140) %"
same,Fraction unbound ratio Severe:Healthy,[2]; 1 h,"87 (65, 115) %"
same,Fraction unbound ratio All Renal Groups Combined:Healthy,[2]; […],"88 (70, 109) %"
same,Fraction unbound ratio Mild:Healthy,[2]; […],"92 (69, 123) %"
same,Fraction unbound ratio Moderate:Healthy,[2]; […],"90 (66, 123) %"
same,Fraction unbound ratio Severe:Healthy,[2]; […],"81 (59, 110) %"
same,Response rate,[3],16.7%
